Converted amounts (≈) assume the structure as drawn.
Key:
Format in all cases: functional
[1] = test system: Candida albicans; assay: Antifungal activity against Candida albicans ATCC 10231
[2] = test system: Pichia kudriavzevii; assay: Antifungal activity against Candida krusei ATCC 6258
[3] = test system: Candida parapsilosis; assay: Antifungal activity against Candida parapsilosis ATCC 22019; conditions: Lodderomyces parapsilosis
[4] = test system: Nakaseomyces glabratus; assay: Antifungal activity against Candida glabrata ATCC 90030
[5] = test system: Aspergillus niger; assay: Antifungal activity against Aspergillus niger assessed as zone of inhibition by disc diffusion method
[6] = test system: Candida albicans; assay: Antifungal activity against Candida albicans assessed as zone of inhibition by disc diffusion method
[7] = test system: Candida albicans; assay: Antifungal activity against Candida albicans
[8] = test system: Candida albicans; assay: Antifungal activity against Candida albicans assessed as diameter of zone inhibition by disc diffusion method
[9] = test system: Candida tropicalis; assay: Antifungal activity against Candida tropicalis assessed as inhibition of fungal growth
[10] = test system: Aspergillus niger; assay: Antifungal activity against Aspergillus niger assessed as inhibition of fungal growth
[11] = test system: Candida albicans; assay: Antifungal activity against Candida albicans assessed as zone of inhibition by serial dilution and disc diffusion method
[12] = test system: Saccharomyces cerevisiae; assay: Antimicrobial activity against Saccharomyces cerevisiae assessed as zone of inhibition by disc diffusion method
[13] = test system: Saccharomyces cerevisiae; assay: Antimicrobial activity against Saccharomyces cerevisiae assessed as zone of inhibition
[14] = test system: Candida albicans; assay: Antifungal activity against Candida albicans assessed as diameter of zone inhibition
[15] = test system: Candida albicans; assay: Antimicrobial activity against Candida albicans ATCC 64124 assessed as reduction in microbial growth by CLSI protocol based micro-broth dilution method

## Nc1ccc(C(=O)NNc2nc3ccccc3nc2Cl)cc1
[1]
  MIC50: 0.78 µg/mL (≈ 2.49 µM)
[2]
  MIC: 0.78 µg/mL (≈ 2.49 µM)
[3]
  MIC: 0.78 µg/mL (≈ 2.49 µM)
[4]
  MIC: 0.78 µg/mL (≈ 2.49 µM)

## COc1ccc(C2c3c([nH]c(=O)[nH]c3=O)OC3N=CN(c4ccccc4N)C(=N)C32)cc1 (centres undefined)
[5]
  inhibition zone (IZ): 10 mm

## CC1=N/C(=C\c2ccc(Cl)cc2)C(=O)N1c1c(N)n(C)c(=O)n(C)c1=O
[6]
  inhibition zone (IZ): 10 mm

## O=C(CN1CCn2c(nnc2C(F)(F)F)C1)Nc1nc2ccccc2s1
[7]
  MIC: 250 µg/mL (≈ 654 µM)

## COc1ccc(C(=O)C2CC(C#N)C3C=C(C)N=CN23)cc1 (centres undefined)
[8]
  inhibition zone (IZ): 23 mm

## Nc1nc(-c2cnc(Cl)cn2)cc(-c2ccc(F)cc2F)n1
[9]
  MIC: 50 µM (≈ 16 µg/mL)
[10]
  MIC: 50 µM (≈ 16 µg/mL)

## COc1ccccc1/C=N/Nc1ncnc2[nH]ccc12
[11]
  inhibition zone (IZ): 30 mm

## O=[N+]([O-])c1ccc(/C=N/c2ncnc3[nH]ccc23)cc1
[12]
  inhibition zone (IZ): 13 mm
[6]
  inhibition zone (IZ): 15 mm

## CC1=NN(c2ccccc2)C2N=C3SCCN3C(c3ccccc3[N+](=O)[O-])C12 (centres undefined)
[5]
  inhibition zone (IZ): 24 mm

## COc1cccc(/C=N/Nc2ncnc3[nH]ccc23)c1OC
[11]
  inhibition zone (IZ): 30 mm
[13]
  inhibition zone (IZ): 24 mm

## COc1ccc(OC)c(/C=N/Nc2ncnc3[nH]ccc23)c1
[11]
  inhibition zone (IZ): 30 mm
[13]
  inhibition zone (IZ): 24 mm

## COc1ccc(C2c3c([nH]c(=O)[nH]c3=O)OC3N=CN(C(=S)Nc4ccccc4)C(=N)C32)cc1 (centres undefined)
[5]
  inhibition zone (IZ): 10 mm

## Fc1ccccc1/C=N/c1ncnc2[nH]ccc12
[12]
  inhibition zone (IZ): 13 mm
[6]
  inhibition zone (IZ): 15 mm

## Nc1nc(-c2cnc(Cl)cn2)cc(-c2ccc(Cl)cc2Cl)n1
[9]
  MIC: 45.4 µM (≈ 16 µg/mL)
[10]
  MIC: 45.4 µM (≈ 16 µg/mL)

## Nc1nc(-c2cnc(Cl)cn2)cc(-c2ccc[nH]2)n1
[9]
  MIC: 110 µM (≈ 30.1 µg/mL)
[10]
  MIC: 110 µM (≈ 30.1 µg/mL)

## Cc1nc2ccccc2nc1NNC(=O)c1ccc(N)cc1
[1]
  MIC50: 0.78 µg/mL (≈ 2.66 µM)
[2]
  MIC: 0.78 µg/mL (≈ 2.66 µM)
[3]
  MIC: 0.78 µg/mL (≈ 2.66 µM)
[4]
  MIC: 0.78 µg/mL (≈ 2.66 µM)

## CC1=CC2C(C#N)CC(C(=O)c3ccc([N+](=O)[O-])cc3)N2C=N1 (centres undefined)
[8]
  inhibition zone (IZ): 24 mm

## COC(=O)c1c(C(=O)OC)c2cccnn2c1C(=O)c1ccc(C)cc1
[8]
  inhibition zone (IZ): 18 mm

## Nc1nc(-c2cccnc2)cc(-c2cnc(Cl)cn2)n1
[9]
  MIC: 110 µM (≈ 31.4 µg/mL)
[10]
  MIC: 110 µM (≈ 31.4 µg/mL)

## COC(=O)C1C(C(=O)OC)C(C(=O)c2ccccc2)N2N=C(c3ccc(Cl)cc3)C=CC12 (centres undefined)
[14]
  inhibition zone (IZ): 25 mm

## Cc1nc(-c2ccc(C(C)(C)C)cc2)sc1-c1ccnc(NCCCN)n1
[15]
  MIC: 4 µg/mL

## CC1=NN2C(C(=O)c3ccc(C)cc3)C3C(=O)N(c4ccccc4)C(=O)C3C2c2ccccc21 (centres undefined)
[8]
  inhibition zone (IZ): 18 mm

## COc1ccc(/C=N/Nc2ncnc3[nH]ccc23)c(OC)c1
[11]
  inhibition zone (IZ): 30 mm
[13]
  inhibition zone (IZ): 24 mm

## CN(C)c1ccc(/C=N/c2ncnc3[nH]ccc23)cc1
[12]
  inhibition zone (IZ): 13 mm
[6]
  inhibition zone (IZ): 15 mm

## Cc1nc(-c2ccc(C(C)(C)C)cc2)sc1-c1ccnc(N[C@H]2CCCC[C@@H]2N)n1
[15]
  MIC: 4 µg/mL

## O=c1cc[nH]c(=O)n1N=C1CC(c2ccc(Cl)cc2)SC(c2ccc(Cl)cc2)C1 (centres undefined)
[7]
  MIC: 0.25 µg/mL (≈ 0.56 µM)

## Cl.FC(F)(F)c1nnc2n1CCNC2
[7]
  MIC: 250 µg/mL

## Nc1nc(-c2ccc(Cl)cc2)cc(-c2cnc(Cl)cn2)n1
[9]
  MIC: 97.3 µM (≈ 31 µg/mL)
[10]
  MIC: 97.3 µM (≈ 31 µg/mL)

## COC(=O)c1c(C(=O)OC)c2c3ccccc3cnn2c1C(=O)c1ccc(C)cc1
[8]
  inhibition zone (IZ): 18 mm

## Cc1ccc(C(=O)C2CC(C#N)C3c4ccccc4C=NN23)cc1 (centres undefined)
[8]
  inhibition zone (IZ): 18 mm

## CN(C)c1ccc(/C=N/c2c(N)n(Cc3ccccc3)c(=O)[nH]c2=O)cc1
[6]
  inhibition zone (IZ): 10 mm

## Cc1nc2ccccc2nc1N1CC(C(=O)O)=CC1=O
[1]
  MIC50: 0.78 µg/mL (≈ 2.9 µM)
[2]
  MIC: 0.78 µg/mL (≈ 2.9 µM)
[3]
  MIC: 0.78 µg/mL (≈ 2.9 µM)
[4]
  MIC: 0.78 µg/mL (≈ 2.9 µM)

## CC1=NN(c2ccccc2)C2N=C3SCCN3C(c3cccc(Cl)c3)C12 (centres undefined)
[5]
  inhibition zone (IZ): 24 mm

## COc1ccc(/C=N/Nc2ncnc3[nH]ccc23)cc1
[11]
  inhibition zone (IZ): 30 mm
[13]
  inhibition zone (IZ): 24 mm

## Cc1ccc(C(=O)C2C3C(=O)N(c4ccccc4)C(=O)C3C3C=CC=NN32)cc1 (centres undefined)
[8]
  inhibition zone (IZ): 18 mm

## COc1cc(-c2cc(-c3cnc(Cl)cn3)nc(N)n2)ccc1O
[9]
  MIC: 107 µM (≈ 35.2 µg/mL)
[10]
  MIC: 107 µM (≈ 35.2 µg/mL)

## Nc1nc(-c2ccccn2)cc(-c2cnc(Cl)cn2)n1
[9]
  MIC: 110 µM (≈ 31.4 µg/mL)
[10]
  MIC: 110 µM (≈ 31.4 µg/mL)

## Nc1nc2ccccc2nc1NC1CC(C(=O)O)=CC1=O (centres undefined)
[1]
  MIC50: 0.78 µg/mL (≈ 2.74 µM)
[2]
  MIC: 0.78 µg/mL (≈ 2.74 µM)
[3]
  MIC: 0.78 µg/mL (≈ 2.74 µM)
[4]
  MIC: 0.78 µg/mL (≈ 2.74 µM)

## Nc1nc(-c2ccc(F)cc2)cc(-c2cnc(Cl)cn2)n1
[9]
  MIC: 97.3 µM (≈ 29.4 µg/mL)
[10]
  MIC: 97.3 µM (≈ 29.4 µg/mL)

## CC1=NN(c2ccccc2)C2N=C3SCCN3C(c3ccccc3Cl)C12 (centres undefined)
[5]
  inhibition zone (IZ): 24 mm

## O=c1c(C(O)c2ccccc2)c(SCc2ccccc2)[nH]c2nc(-c3ccccc3)c(-c3ccccc3)n12 (centres undefined)
[5]
  inhibition zone (IZ): 15 mm

## CN(C)C=O [DIMETHYLFORMAMIDE]
[8]
  inhibition zone (IZ): 16 mm

Source: ChEMBL document CHEMBL6103565, “Current strategies in design and synthesis of antifungals hybrid and chimeric diazine derivatives” (Bioorg Med Chem, 2025)
